Measured values: article PMC10830420, “Structures, functions and adaptations of the human LINE-1 ORF2 protein” (Nature, 2023)

Experiments:
[1] = target: T1, ORF2p core (Homo sapiens, UniProt O00370); assay: Gel-based L1 RT assay, ORF2p core, inhibition by NRTI triphosphates; type: biochemical; conditions: 100 nM dNTP mixture
T1 construct: His6-MBP-3C-ORF2p (238-1061, ORFeus-Hs) in pET41; His6-MBP (3C protease site) (N, cleaved yes); made in house; host or cells: E. coli
Experimental: (§1) ORF2p core was preincubated with a template:primer containing a single site for the incorporation of a given nucleotide analogue. The primer/template sequence shown in the panel a illustrates the case of single incorporation of 3TC, with a single G for incorporation; the incoming template sequence for entecavir and carbovir has a single C, and for d4T a single A, each at position labeled “N”. Reactions were incubated for one minute at 37 °C with a 100 nM dNTP mixture and increasing concentrations of listed inhibitors. IC50 index, fold = IC50 (drug, µM) ÷ [dNTP] […] Fluorescein-labeled dNTPs (here, uracil-TP) are incorporated by ORF2p into a biotinylated primer, here shown against a poly(A) template. Detection is then achieved using FRET with a terbium cryptate labeled streptavidin, and the time-resolved technique and time-delayed emission from terbium cryptate reduces background from other fluorescent chemicals in the mix. In the presence of ORF2p RT inhibitors (RTIs), base incorporation is stopped and FRET signal is lost. […]
(§2) ORF2p reverse transcriptase activity assays […]
Gel-based RT activity assays consisted of pr e-incubating RTs with annealed DNA/RNA, DNA/DNA, or RNA/RNA 5’- end- radiolabeled or 5’-end-Cy5- o r FAM-labeled template:primer duplex or hybrid duplex and, where indicated, inhibitor in the presence of 0.1- 1 μ M dNTP or NTP mixture, 0.25 mM EDTA, 50 mM NaCl, and 25 mM Tris (pH 8) for 10 min at 37°C. Labeled nucleic acids were purchased from Dharmacon or IDT. Unless otherwise indicated, 15 μL reactions were initiated by the addition of 1.3 mM MgCl2, incubated for 10 min at 37 °C, and then stopped by the addition of 15 μL of formamide/EDTA (25 mM) mixture and incubated at 95 °C for 10 min. 3 μL reaction samples were subjected to denaturing 8 M urea 20% PAGE to resolve products followed by signal quantification (ImageQuant 5.2, GE Healthcare Bio- Sciences) through phosphorimaging (Amersham Typhoon 5, Cytivia). Scanned gel images are […]
minor products; original images are provided in an Extended Data file. […]

[2] = target: T1, ORF2p core; assay: Homogeneous time-resolved fluorescence (HTRF) ORF2p RT assay; type: biochemical; conditions: HTRF; NRTI NTPs
Experimental: as §1, §2
For HTRF RT assays157, 25 nM ORF2p core and 12. 5 nM t em plat e: primer was incubated at 25°C for 60 minutes
with 10 nM of fluorescein- 12- dUTP (Thermo), 1 µM each (dATP,dCTP,dGTP), and test compound in a 15 µL
reaction with buffer containing 50 mM Tris-HCl, 50 mM KCl, 10 mM MgCl2, 10 mM DTT, pH 8.1, and 1% final

[3] = target: T2, Full-length ORF2p WT (FADD) (Homo sapiens, UniProt O00370); assay: Gel-based RT assay of full-length ORF2p WT (FADD); type: biochemical; conditions: single-nucleotide-resolution RT assays
T2 construct: gel-based RT assay of full-length ORF2p WT (FADD) or HIV-like (FMDD); His8 (C); HERV-K protease + TEV protease + TEV site (self-processed; leaves one Gly) (N, cleaved yes); made in house; host or cells: SF9 insect cells (MultiBac)
Description: (§3) Crystal structure of AZT triphosphate bound to HIV-1 RT (PDB 5I42) versus model of AZT triphosphate bound to L1 ORF2p. […] Left, HIV-1 RT in the NNRTI-unbound conformation (PDB 7LRI). Residues involved in NNRTI-resistance are highlighted; space occupied by HIV-1-bound nevirapine is shadowed (PDB 4PUO). Right, equivalent region in L1 ORF2p. The long α-helix corresponds to residues 572–588 in ORF2p. […] Data in a, b and e are representative of two independent experiments and shown as mean ± s.d. […]
(§4) server155 and manually checked with cutoff of 2.5-3.3 Å for polar interactions and 3.7 Å for van der Waals […]
(§5) ORF2p reverse transcriptase activity assays
(§6) Microwell assays were performed using the reverse transcriptase assay, colorimetric (Roche) according to the manufacturer’s instructions, with the supplied poly(A) template and oligo(dT) 15 primer. ORF2p fractions were diluted for assay in lysis/binding buffer (50 mM Tris, 80 mM potassium chloride, 2.5 mM DTT, 0.75 mM EDTA, and 0.5% Triton X- 100; pH 7.8) and incorporation of digoxigenin- and biotin- labeled dUTP into DNA was measured by absorbance at 405 nm as compared to a 490 nm reference. […] 3 μL reaction samples were subjected to denaturing 8 M urea 20% PAGE to resolve products followed by signal quantification (ImageQuant 5.2, GE Healthcare Bio- Sciences) through phosphorimaging (Amersham Typhoon 5, Cytivia). […]

[4] = target: T3, A701M mutant full-length ORF2p (FMDD) (Homo sapiens, UniProt O00370, A701M); assay: Gel-based RT assay of full-length ORF2p A701M mutant (FMDD); type: biochemical
T3 construct: His8 (C); HERV-K protease + TEV protease + TEV site (self-processed; leaves one Gly) (N, cleaved yes); made in house; host or cells: SF9 insect cells (MultiBac)
Description: as §3, §4, §5, §6

[5] = tested on: L1 retrotransposition reporter in HeLa cells; assay: LINE-1 dual luciferase retrotransposition assay in HeLa cells; type: cell-based, human; conditions: HeLa cells, stable dual luciferase L1 reporter, normalized to cell viability, n = 3 wells

Nc1ccn([C@@H]2CS[C@H](CO)O2)c(=O)n1 [3TC, lamivudine]
IC50 index, fold = IC50 (drug, µM) ÷ [dNTP] (natural counterpart, 0.1 µM) [1]: 56 fold | IC50 ([1]; NTP forms of NRTIs, one minute at 37 °C): 5000 to 7000 nM | IC50 [2]: 200 to 750 nM | inhibition of full-length ORF2p compared with ORF2p core [3]: similarly inhibited | fold more potent in inhibiting A701M mutant full-length ORF2p (FMDD) than wild type (FADD) [4]: approximately 15 fold | IC50 [5]: 900 nM | IC50 ([5]; Homo sapiens, HeLa): 1000 to 5000 nM
